From patent US20220177587A1, “METHODS AND USES OF VARIANT CD80 FUSION PROTEINS AND RELATED CONSTRUCTS” (Alpine Immune Sciences, Inc., priority 2018, published 2022)

Legend:
[1] = tested on: huPD-L1/MC38 cells; assay: huPD-L1 MC38 tumor model, combination with oxaliplatin; type: in vivo, mouse
Description: To test the anti-tumor activity of the exemplary variant, it was evaluated alone or in combination with the platinum-based chemotherapeutic agent, oxaliplatin, in mice bearing human PD-L1-expressing MC38 tumors, which is a syngeneic mouse colon carcinoma solid tumor model.
The huPD-L1 MC38 cell line was generated by transducing parental MC38 cells with huPD-L1 using viral transduction. Eight-week old female C57/BL6NJ mice (The Jackson Laboratories, Sacramento, Calif.) were implanted subcutaneously with 0.5×10^6 huPD-L1/MC38 cells. For injections, 0.1 mL of cells (0.5×10^6 cells) were injected subcutaneously (SC) in the right mid-flank region.
On day 1, mice were randomized into four groups of 10 mice each, with all mice in each group having about equal mean tumor volumes (˜108 mm^3). Tumors were measured with electronic calipers two-dimensionally twice weekly, beginning on day 7 post-tumor cell implant (referred to as “day 1”). Tumor volume was calculated as length×(width×2)×0.5, with the length being the longer of the two measurements.
As shown, 30% of the mice in the monotherapy group were tumor free by the end of the study.

[2] = target: T1, PD-L1/PD-1 interaction (Homo sapiens, UniProt Q9NZQ7); assay: PD-L1/PD-1 binding and blocking on CHO/PD-L1 cells; settings: fluorescently conjugated PD-1-Fc; FIG. 7
T1 construct: expressed in transfected cells
Description: Binding of selected immunomodulatory fusion proteins to cells expressing PD-L1 was assessed to test for blocking of the PD-L1/PD-1 interaction. […] Samples were acquired on a flow cytometer and MFIs of the fluorescently labeled PD-1 were determined by Flowjo software analysis.
The multivalent variant CD80 IgSF domain fusion proteins were assessed to test for blocking of the PD-L1/PD-1 and CTLA-4/CD80 interaction performed substantially as described in Example 15. CHO/OKT3/PD-L1 and CHO/CTLA-4 cells were counted and plated at 100,000 cells/well and then incubated with fluorescently conjugated PD-1-Fc and CD80-Fc. Exemplary multivalent variant CD80 IgSF domain fusion proteins were incubated with the cells for 30 minutes. […] Cells were washed and incubated with 100 nM fluorescently conjugated PD-1-Fc and CD80-Fc competitor for 30 minutes. Cells were then washed and samples were acquired on a flow cytometer and MFIs of the fluorescently labeled molecules were determined.

[3] = target: CD28 (Homo sapiens, UniProt P10747); assay: Jurkat/IL2 + K562/OKT3/PD-L1 reporter assay; type: cell-based; set-up: host or cells: Jurkat cells expressing an IL-2-luciferase reporter; settings: IgV-Fc (inert); various concentrations; FIG. 5
[4] = tested on: huPD-L1/MC38 cells; assay: huPD-L1 MC38 tumor model, combination with anti-CTLA-4; type: in vivo, mouse
Description: Eight-week old female C57/BL6NJ mice (The Jackson Laboratories, Sacramento, Calif.) were implanted subcutaneously with 1.5×10^6 huPD-L1/MC38 cells (described in Example 27. On days 8, 11 or 14 post-tumor cell implant mice, the tested molecules were delivered through intraperitoneal (IP) injection as set forth in Table E40. Tumor volume was determined substantially as described in Example 27.

[5] = tested on: huPD-L1/B16-F10 cells; assay: huPD-L1/B16-F10 melanoma model; type: in vivo, mouse
Description: This variant is an exemplary variant identified to have increased binding affinity for PD-L1 compared to wild-type CD80 and activity to block PD-L1 and CTLA-4 and to provide PD-L1-dependent T cell activation via CD28 costimulatory receptor. To test the anti-tumor activity of the exemplary variant, it was evaluated alone or in combination with an anti-mouse PD-1 monoclonal antibody (clone RMP1-14, rat IgG2a) in mice bearing human PD-L1 (huPD-L1)-expressing B16-F10 tumors, which is a syngeneic mouse melanoma model. This model is an aggressive and, in many cases, a treatment-resistant model.
Subconfluent cells (˜80% confluent) were harvested on the day of implantation (study day 0). The cells were washed twice and brought to a final concentration of 5×10^6 cells/mL in DPBS. Female C57BL/6NJ mice (Jackson Labs, USA) were implanted subcutaneously with approximately 0.5×10^6 huPD-L1/B16-F10 cells. […] The B16-F10 cells at time of implant were evaluated to confirm expression of huPD-L1 by flow cytometry. […]
Tumors were measured with electronic calipers two-dimensionally twice weekly, beginning on day 6 post-tumor cell implant. Tumor volume was calculated as length×(width×2)×0.5, with the length being the longer of the two measurements. […] Calculations for the mean and median were determined on the last day in which at least 70% of mice were alive on study (day 18 post-tumor cell implant).

[6] = tested on: MC38 hPD-L1 tumor cells; assay: Flow cytometry of tumors and draining lymph nodes of treated mice; type: in vivo, mouse; settings: three days following the 2nd dose; vs Fc control or anti-PD-L1
Description: Tissues were processed to single cell suspensions (tumors were enzymatically digested as a part of the processing, whereas draining LN were not), and subjected to multi-color flow cytometric analysis of CD8+ T cells on the CD45+ cell subset (immune cells in either the LN or tumor), as well as % hIgG+ staining on the CD45− cell subset (tumor cells) to detect molecules (CD80-IgV-Fc or anti-PD-L1) bound to the tumor cells.

[7] = Monkey PK model; type: in vivo, cynomolgus monkey; settings: monkey PK model estimate
Description: A PK model was designed as a two compartment model with intercompartmental distribution (Q) between the first compartment (Central Compartment, V1) and the second compartment (Peripheral Compartment, V2). To capture intraperitoneal (IP) or subcutaneous (SC) injection routes, a third compartment (Depot Compartment) was included with a first-order rate constant (Ka) linking the third compartment uni-directionally to the first compartment. The model also included a constant F to account for loss in the amount of drug available to diffuse from the third compartment (Depot Compartment) to the first compartment (Central Compartment, V1) due to IP or SC injection. The total amount of available drug in the third compartment (Depot Compartment) is described as F×Dose. For intravenous injections (IV), the third compartment (Depot Compartment) was omitted.
For monkeys, linear clearance from the first compartment (Central Compartment, V1) was assumed.

[8] = in combination with oxaliplatin

T1 sequence (Q9NZQ7 19-290): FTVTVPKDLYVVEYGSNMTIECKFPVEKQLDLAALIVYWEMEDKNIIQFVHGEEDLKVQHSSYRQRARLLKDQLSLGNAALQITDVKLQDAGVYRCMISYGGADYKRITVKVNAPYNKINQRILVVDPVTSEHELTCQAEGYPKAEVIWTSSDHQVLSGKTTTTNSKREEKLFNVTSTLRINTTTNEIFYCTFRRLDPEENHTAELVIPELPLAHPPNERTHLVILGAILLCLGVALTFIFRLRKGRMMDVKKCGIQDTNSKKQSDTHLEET

Question: Which results are given for “H18Y/A26E/E35D/M47L/V68M/A71G/D90G: variant CD80 IgV-Fc (inert), IgV SEQ ID NO:491”?
Answer: tumor free mice [1, 8]: 90%; tumor growth over time [1, 8]: significantly greater reductions in tumor growth over time were observed than with either of the agents alone; mean TGI ([1]; in combination with oxaliplatin, day 25): ~100%; median tumor volume ([1]; in combination with oxaliplatin, eleven days after start of dosing): dropped to zero; antitumor activity ([1]; monotherapy): had potent antitumor activity; tumor free mice by the end of the study ([1]; monotherapy): 30%; blocking of binding of PD-1 to PD-L1 [2]: antagonize or block binding of PD-1 to PD-L1; PD-L1 dependent CD28 costimulation (luciferase activity) [3]: induced PD-L1 dependent CD28 costimulation in a dose-dependent manner; tumor growth over time ([4]; in combination with anti-CTLA-4): significantly greater reduction in tumor growth over time was observed than with either agent alone; antitumor activity ([4]; monotherapy): had potent antitumor activity; tumor growth inhibition ([5]; in combination with anti-PD-1 mAb, day 18): 92%; tumor growth (median tumor volumes) ([5]; in combination with anti-mouse PD-1 mAb, IP days 6, 8, 11): significantly reduced tumor growth; percentages of CD8+ T cells in TIL and LN [6]: significantly greater; CL [7]: 1.31 mL/h/kg; F [7]: 66.4%; Ka [7]: 0.728 day⁻¹; Q [7]: 4.37 mL/h/kg; V1 [7]: 0.0509 L/kg; V2 [7]: 0.158 L/kg
